Tests used:
bedstraw = experiment: Test B pre/postemergence bedstraw; type: in vivo, Galium aparine
In short: (§1)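 Herbicidal effect was estimated by eye on a ten-point control scale after plants spent twelve to sixteen days in a greenhouse following soil or foliar treatment. Foliar sprays targeted plants at one to four leaves; all doses were formulated in a non-phytotoxic solvent with surfactant.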

blackgrass = experiment: Test B pre/postemergence blackgrass; type: in vivo, Alopecurus myosuroides
In short: as §1

surinam grass = experiment: Test B pre/postemergence surinam grass; type: in vivo, Brachiaria decumbens
In short: as §1

cocklebur = experiment: Test B pre/postemergence cocklebur; type: in vivo, Xanthium strumarium; conditions: for Cocklebur plant response rating: scale of 0 to 10 where 0 is no effect and 10 is complete control
In short: as §1

corn = experiment: Test B pre/postemergence corn; type: in vivo, Zea mays; conditions: for Corn plant response rating: scale of 0 to 10 where 0 is no effect and 10 is complete control
In short: as §1

morningglory = experiment: Test B pre/postemergence morningglory; type: in vivo, Ipomoea hederacea; conditions: for Morningglory plant response rating: scale of 0 to 10 where 0 is no effect and 10 is complete control
In short: as §1

pigweed = experiment: Test B pre/postemergence pigweed; type: in vivo, Amaranthus retroflexus; conditions: for Redroot pigweed plant response rating: scale of 0 to 10 where 0 is no effect and 10 is complete control
In short: as §1

rape = experiment: Test B pre/postemergence rape; type: in vivo, Brassica napus; conditions: for Rape plant response rating: scale of 0 to 10 where 0 is no effect and 10 is complete control
In short: as §1

soybean = experiment: Test B pre/postemergence soybean; type: in vivo, Glycine max; conditions: for Soybean plant response rating: scale of 0 to 10 where 0 is no effect and 10 is complete control
In short: as §1

sugar beet = experiment: Test B pre/postemergence sugar beet; type: in vivo, Beta vulgaris; conditions: for Sugarbeets plant response rating: scale of 0 to 10 where 0 is no effect and 10 is complete control
In short: as §1

velvetleaf = experiment: Test B pre/postemergence velvetleaf; type: in vivo, Abutilon theophrasti; conditions: for Velvetleaf plant response rating: scale of 0 to 10 where 0 is no effect and 10 is complete control
In short: as §1

wild oat = experiment: Test B pre/postemergence wild oat; type: in vivo, Avena fatua; conditions: for Wild oats plant response rating: scale of 0 to 10 where 0 is no effect and 10 is complete control
In short: as §1

purple nutsedge = experiment: Test B pre/postemergence purple nutsedge; type: in vivo, Cyperus rotundus; conditions: for Nutsedge plant response rating: scale of 0 to 10 where 0 is no effect and 10 is complete control
In short: as §1

rice = experiment: Test B flood test rice; type: in vivo, Oryza sativa
In short: (§2)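 Flood test on plants grown to the 2-leaf stage; treated plants kept in greenhouse twelve to sixteen days, then visually rated against controls on a 0 (no effect) to 10 (complete control) scale.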

smallflower flatsedge = experiment: Test B flood test smallflower flatsedge; type: in vivo, Cyperus difformis
In short: as §2

bamyardgrass = experiment: Test B flood test barnyardgrass; type: in vivo, Echinochloa crus-galli
In short: as §2

[1] = Postemergence, Rate 125 g/ha, scale 0 to 10, 0 is no effect, 10 is complete control
[2] = Preemergence, Rate 62 g/ha, scale 0 to 10 (0 no effect, 10 complete control)
[3] = Rate 62 g/ha, Postemergence, scale of 0 to 10 where 0 is no effect and 10 is complete control
[4] = Rate 250 g/ha, Postemergence, scale of 0 to 10 where 0 is no effect and 10 is complete control
[5] = Rate 500 g/ha, Postemergence, scale 0 to 10, 0 no effect, 10 complete control
[6] = Preemergence, Rate 250 g/ha, scale of 0 to 10 where 0 is no effect and 10 is complete control
[7] = Preemergence, Rate 500 g/ha, scale of 0 to 10 where 0 is no effect and 10 is complete control
[8] = Postemergence (flood test), Rate 125 g/ha, scale 0 to 10, 0 is no effect, 10 is complete control
[9] = Rate 62 g/ha, Postemergence (flood test species), scale of 0 to 10 where 0 is no effect and 10 is complete control
[10] = Rate 500 g/ha, listed under Postemergence (flood test species), scale 0 to 10, 0 no effect, 10 complete control

For `COCC(C)n1c(=O)on(C(=O)N(c2ccc(F)cc2F)C(C)C)c1=O` (centres unmarked) [Compound 352], the “Plant response rating, Bedstraw” value (bedstraw; [1]) was 0, the “Plant response rating, Bedstraw” value (bedstraw; [2]) was 0 and the “Bedstraw plant response rating (0 to 10 scale)” value (bedstraw; Preemergence, Rate 125 g/ha) was 0. For the same molecule, the “Bedstraw plant response rating” value (bedstraw; [3]) was 0, the “Plant response rating, Bedstraw” value (bedstraw; [4]) was 2 and the “Plant response rating, Bedstraw” value (bedstraw; [5]) was 4. For the same molecule, the “Plant response rating, Blackgrass” value (blackgrass; [1]) was 8, the “Plant response rating, Blackgrass” value (blackgrass; [2]) was 9 and the “Blackgrass plant response rating (0 to 10 scale)” value (blackgrass; Preemergence, Rate 125 g/ha) was 10. For the same molecule, the “Blackgrass plant response rating” value (blackgrass; [6]) was 10, the “Blackgrass plant response rating” value (blackgrass; [7]) was 10 and the “Blackgrass plant response rating” value (blackgrass; [3]) was 8. For the same molecule, the “Plant response rating, Blackgrass” value (blackgrass; [4]) was 8, the “Plant response rating, Blackgrass” value (blackgrass; [5]) was 8 and the “Plant response rating, B. signalgrass” value (surinam grass; [1]) was 2. For the same molecule, the “Plant response rating, B. signalgrass” value (surinam grass; [2]) was 2, the “B. signalgrass plant response rating (0 to 10 scale, 0 is no effect, 10 is complete control)” value (surinam grass; Preemergence, Rate 125 g/ha) was 6 and the “B. signalgrass plant response rating” value (surinam grass; [6]) was 7. The “B. signalgrass plant response rating” value (surinam grass; [7]) was 7, the “B. signalgrass plant response rating” value (surinam grass; [3]) was 0 and the “Plant response rating, B. signalgrass” value (surinam grass; [4]) was 7. The “Plant response rating, B. signalgrass” value (surinam grass; [5]) was 7, the “Plant response rating, Cocklebur” value (cocklebur; [1]) was 0 and the “Plant response rating, Cocklebur” value (cocklebur; [2]) was 0. For the same molecule, the “Cocklebur plant response rating (0 to 10 scale)” value (cocklebur; Preemergence, Rate 125 g/ha) was 0, the “Cocklebur plant response rating” value (cocklebur; Preemergence, Rate 250 g/ha) was 0 and the “Cocklebur plant response rating” value (cocklebur; Preemergence, Rate 500 g/ha) was 0. For the same molecule, the “Cocklebur plant response rating” value (cocklebur; Rate 62 g/ha, Postemergence) was 0, the “Plant response rating, Cocklebur” value (cocklebur; [5]) was 0 and the “Plant response rating, Corn” value (corn; [1]) was 0. For the same molecule, the “Plant response rating, Corn” value (corn; [2]) was 0, the “Corn plant response rating (0 to 10 scale)” value (corn; Preemergence, Rate 125 g/ha) was 5 and the “Corn plant response rating” value (corn; Preemergence, Rate 250 g/ha) was 6. For the same molecule, the “Corn plant response rating” value (corn; Preemergence, Rate 500 g/ha) was 9, the “Corn plant response rating” value (corn; Rate 62 g/ha, Postemergence) was 0 and the “Plant response rating, Corn” value (corn; [5]) was 6. The “Plant response rating, Morningglory” value (morningglory; [1]) was 6, the “Plant response rating, Morningglory” value (morningglory; [2]) was 0 and the “Morningglory plant response rating (0 to 10 scale)” value (morningglory; Preemergence, Rate 125 g/ha) was 0. The “Morningglory plant response rating” value (morningglory; Preemergence, Rate 250 g/ha) was 0, the “Morningglory plant response rating” value (morningglory; Preemergence, Rate 500 g/ha) was 2 and the “Morningglory plant response rating” value (morningglory; Rate 62 g/ha, Postemergence) was 0. The “Plant response rating, Morningglory” value (morningglory; [5]) was 8, the “Plant response rating, Redroot pigweed” value (pigweed; [1]) was 3 and the “Redroot pigweed plant response rating (0 to 10 scale)” value (pigweed; Preemergence, Rate 125 g/ha) was 3. For the same molecule, the “Redroot pigweed plant response rating” value (pigweed; Preemergence, Rate 250 g/ha) was 10, the “Redroot pigweed plant response rating” value (pigweed; Preemergence, Rate 500 g/ha) was 10 and the “Redroot pigweed plant response rating” value (pigweed; Rate 62 g/ha, Postemergence) was 0. For the same molecule, the “Plant response rating, Redroot pigweed” value (pigweed; [5]) was 4, the “Plant response rating, Rape” value (rape; [1]) was 0 and the “Plant response rating, Rape” value (rape; [2]) was 0. The “Rape plant response rating (0 to 10 scale)” value (rape; Preemergence, Rate 125 g/ha) was 0, the “Rape plant response rating” value (rape; Preemergence, Rate 250 g/ha) was 0 and the “Rape plant response rating” value (rape; Preemergence, Rate 500 g/ha) was 7. For the same molecule, the “Rape plant response rating” value (rape; Rate 62 g/ha, Postemergence) was 0, the “Plant response rating, Rape” value (rape; [5]) was 0 and the “Plant response rating, Soybean” value (soybean; [1]) was 2. The “Plant response rating, Soybean” value (soybean; [2]) was 0, the “Soybean plant response rating (0 to 10 scale)” value (soybean; Preemergence, Rate 125 g/ha) was 0 and the “Soybean plant response rating” value (soybean; Preemergence, Rate 250 g/ha) was 0. The “Soybean plant response rating” value (soybean; Preemergence, Rate 500 g/ha) was 2, the “Soybean plant response rating” value (soybean; Rate 62 g/ha, Postemergence) was 2 and the “Plant response rating, Soybean” value (soybean; [5]) was 4. The “Plant response rating, Sugarbeets” value (sugar beet; [1]) was 0, the “Plant response rating, Sugarbeets” value (sugar beet; [2]) was 2 and the “Sugarbeets plant response rating (0 to 10 scale)” value (sugar beet; Preemergence, Rate 125 g/ha) was 3. For the same molecule, the “Sugarbeets plant response rating” value (sugar beet; Preemergence, Rate 250 g/ha) was 3, the “Sugarbeets plant response rating” value (sugar beet; Preemergence, Rate 500 g/ha) was 7 and the “Sugarbeets plant response rating” value (sugar beet; Rate 62 g/ha, Postemergence) was 0. For the same molecule, the “Plant response rating, Sugarbeets” value (sugar beet; [5]) was 0, the “Plant response rating, Velvetleaf” value (velvetleaf; [1]) was 0 and the “Plant response rating, Velvetleaf” value (velvetleaf; [2]) was 2. The “Velvetleaf plant response rating (0 to 10 scale)” value (velvetleaf; Preemergence, Rate 125 g/ha) was 4, the “Velvetleaf plant response rating” value (velvetleaf; Preemergence, Rate 250 g/ha) was 6 and the “Velvetleaf plant response rating” value (velvetleaf; Preemergence, Rate 500 g/ha) was 7. The “Velvetleaf plant response rating” value (velvetleaf; Rate 62 g/ha, Postemergence) was 0, the “Plant response rating, Velvetleaf” value (velvetleaf; [5]) was 3 and the “Plant response rating, Wild oats” value (wild oat; [1]) was 0. For the same molecule, the “Plant response rating, Wild oats” value (wild oat; [2]) was 8, the “Wild oats plant response rating (0 to 10 scale)” value (wild oat; Preemergence, Rate 125 g/ha) was 8 and the “Wild oats plant response rating” value (wild oat; Preemergence, Rate 250 g/ha) was 9. For the same molecule, the “Wild oats plant response rating” value (wild oat; Preemergence, Rate 500 g/ha) was 10, the “Wild oats plant response rating” value (wild oat; Rate 62 g/ha, Postemergence) was 0 and the “Plant response rating, Wild oats” value (wild oat; [5]) was 7. For the same molecule, the “Plant response rating, Nutsedge” value (purple nutsedge; [1]) was 0, the “Plant response rating, Nutsedge” value (purple nutsedge; [2]) was 0 and the “Nutsedge plant response rating (0 to 10 scale)” value (purple nutsedge; Preemergence, Rate 125 g/ha) was 0. The “Nutsedge plant response rating” value (purple nutsedge; Preemergence, Rate 250 g/ha) was 0, the “Nutsedge plant response rating” value (purple nutsedge; Preemergence, Rate 500 g/ha) was 0 and the “Nutsedge plant response rating” value (purple nutsedge; Rate 62 g/ha, Postemergence) was 0. For the same molecule, the “Plant response rating, Nutsedge” value (purple nutsedge; [5]) was 2, the “Plant response rating, Rice” value (rice; [8]) was 3 and the “Rice plant response rating” value (rice; [9]) was 0. The “Plant response rating, Rice” value (rice; [10]) was 3, the “Plant response rating, S. Flatsedge” value (smallflower flatsedge; [8]) was 7 and the “S. Flatsedge plant response rating” value (smallflower flatsedge; [9]) was 2. The “Plant response rating, S. Flatsedge” value (smallflower flatsedge; [10]) was 7, the “Plant response rating, Barnyardgrass” value (bamyardgrass; [8]) was 3 and the “Barnyardgrass plant response rating” value (bamyardgrass; [9]) was 0. The “Plant response rating, Barnyardgrass” value (bamyardgrass; Rate 250 g/ha, Postemergence (flood test species), scale of 0 to 10 where 0 is no effect and 10 is complete control) was 3 and the “Plant response rating, Barnyardgrass” value (bamyardgrass; [10]) was 3.

— patent US6737383B1, “Herbicidal oxadiazolidines” (priority 1999, dated 2004)
